Data: US9403801B2 (Calitor Sciences, LLC, priority 2014, dated 2016)

What was measured:
[1] = Pharmacokinetics after intravenous and oral administration in rats; assay type: in vivo; conditions: for Clearance (CL) after iv dosing / AUC(0-t) / half-life / Vd: dose 1 mg/kg (Ex. 27: 0.72 mg/kg), iv dosing; for F: oral bioavailability; for AUC(0-t) / half-life / Vd: rat, plasma; for Vd: read-out: Vss
Description: The LC/MS/MS system used in the analysis consists of an Agilent 1200 Series vacuum degasser, binary pump, well-plate autosampler, thermostatted column compartment, the Agilent G6430 Triple Quadrupole Mass Spectrometer with an electrosprayionization (ESI) source. Quantitative analysis was carried out using MRM mode. The parameters for MRM transitions are in the Table A.
An Agilent XDB-C18, 2.1×30 mm, 3.5 μM column was used for the analysis. 5 μL of the samples were injected. Analysis condition: The mobile phase was 0.1% formic acid in water (A) and 0.1% formic acid in methanol (B). The flow rate was 0.4 mL/min. And the gradient of Mobile phase was in the Table B.
Alternatively, an Agilent 6330 series LC/MS/MS spectrometer equipped with G1312A binary pumps, a G1367A autosampler and a G1314C UV detector were used in the analysis. An ESI source was used on the LC/MS/MS spectrometer. The analysis was done in positive ion mode as appropriate and the MRM transition for each analyte was optimized using standard solution. A Capcell MP-C18 100×4.6 mm I.D., […] column (Phenomenex, Torrance, Calif., USA) was used during the analysis. The mobile phase was 5 mM ammonia acetate, 0.1% MeOH in water (A): 5 mM ammonia acetate, 0.1% MeOH in acetonitrile (B) (70:30, v/v). The flow rate was 0.6 mL/min. Column was maintained at ambient temperature. 20 μL of the samples were injected.
The compounds disclosed herein are assessed in pharmacokinetic studies in mice, rats, dogs or monkeys. The compounds are administered as a water solution, 2% HPMC+1% TWEEN®80 in water solution, 5% DMSO+5% solution in saline, 4% MC suspension or capsule. For the intravenous administration, the animals are generally given at 1 or 2 mg/kg dose. For the oral (p.o.) dosing, mice and rats are generally given 5 or 10 mg/kg dose, and dogs and monkeys are generally given 10 mg/kg dose. The blood samples (0.3 mL) are drawn at 0.25, 0.5, 1.0, 2.0, 3.0, 4.0, 6.0, 8.0, 12 and 24 h time points or 0.083, 0.25, 0.5, 1.0, 2.0, 4.0, 6.0, 8.0 and 24 h time points and centrifuged at 3,000 or 4000 rpm for 2 to 10 min. The plasma solutions are collected, and stored at −20° C. or −70° C. until analyzed by LC/MS/MS as described above.

[2] = Compound stability in rat liver microsomes; assay type: in vitro ADME; conditions: for half-life at 5 μM: compound 5 μM, NADPH 1.0 mM, 37° C.; for CLint scaled at 5 μM: in vivo CLint extrapolated
Description: (§1) Human or rat liver microsomes incubations were conducted in duplicate in polypropylene tubes. The typical incubation mixtures consisted of human or rat liver microsomes (0.5 mg protein/mL), compounds of interest (5 μM) and NADPH (1.0 mM) in a total volume of 200 μL potassium phosphate buffer (PBS, 100 mM, pH 7.4). Compounds were dissolved in DMSO and diluted with PBS such that the final concentration of DMSO was 0.05%. The enzymatic reactions were commenced with the addition of protein after a 3-min preincubation and incubated in a water bath open to the air at 37° C. Reactions were terminated at various time points (0, 5, 10, 15, 30, 60 min) by adding equal volume of ice-cold acetonitrile. The samples were stored at −80° C. until LC/MS/MS assays.
(§2) The concentrations of compounds in the incubation mixtures of human or rat liver microsomes were determined by a LC/MS/MS method. The ranges of the linearity in the concentration range were determined for each tested compounds.
(§3) A parallel incubation was performed using denatured microsomes as the negative control, and reactions were terminated at various time points (0, 15, 60 min) after incubation at 37° C.
(§4) Dextromethorphan (70 μM) was selected as the positive control, and reactions were terminated at various time points (0, 5, 10, 15, 30, 60 min) after incubation at 37° C. Both positive and negative control samples were included in each assay to ensure the integrity of the microsomal incubation system.
(§5) The concentrations of compounds in human or rat liver microsome incubations were plotted as a percentage of the relevant zero time point control for each reaction. The in vivo CLint were extrapolated (ref.: Naritomi, Y.; Terashita, S.; Kimura, S.; Suzuki, A.; Kagayama, A.; and Sugiyama, Y.; Prediction of human hepatic clearance from in vivo animal experiments and in vitro metabolic studies with liver microsomes from animals and humans. Drug Metab. Dispos., 2001, 29: 1316-1324).

[3] = Compound stability in human liver microsomes; assay type: in vitro ADME; conditions: for half-life at 5 μM: compound 5 μM, NADPH 1.0 mM, 37° C.; for CLint scaled at 5 μM: in vivo CLint extrapolated
Description: as §1, §2, §3, §4, §5

JAK1 (h) = JAK1 (h) (Homo sapiens (Human), UniProt P23458); assay: JAK1 kinase assay (33P-ATP filter binding, Millipore); assay type: biochemical
Description: Kinase assays can be performed by measurement of incorporation of γ-^33P ATP into immobilized myelin basic protein (MBP). High binding white 384 well plates (Greiner) are coated with MBP (Sigma #M−1891) by incubation of 60 μL/well of 20 μg/mL MBP in Tris-buffered saline (TBS; 50 mM Tris pH 8.0, 138 mM NaCl, 2.7 mM KCl) for 24 h at 4° C. Plates are washed 3× with 100 μL TBS. Kinase reactions are carried out in a total volume of 34 μL in kinase buffer (5 mM Hepes pH 7.6, 15 mM NaCl, 0.01% bovine gamma globulin (Sigma #I-5506), 10 mM MgCl2, 1 mM DTT, 0.02% TritonX-100). Compound dilutions are performed in DMSO and added to assay wells to a final DMSO concentration of 1%. Each data point is measured in duplicate, and at least two duplicate assays are performed for each individual compound determination. Enzyme is added to final concentrations of 10 nM or 20 nM, for example. A mixture of unlabeled ATP and γ-^33P ATP is added to start the reaction (2×10^6 cpm of γ-^33P ATP per well (3000 Ci/mmole) and 10 μM unlabeled ATP, typically. The reactions are carried out for 1 h at room temperature with shaking. Plates are washed 7× with TBS, followed by the addition of 50 μL/well scintillation fluid (Wallac). Plates are read using a Wallac Trilux counter. This is only one format of such assays; various other formats are possible, as known to one skilled in the art.
The above assay procedure can be used to determine the IC50 for inhibition and/or the inhibition constant, Ki. The IC50 is defined as the concentration of compound required to reduce the enzyme activity by 50% under the condition of the assay. The IC50 value is estimated by preparing a 10 point curve using a 1/2 log dilution series (for example, a typical curve may be prepared using the following compound concentrations: 3 μM, 1 μM, 0.3 μM, 0.1 μM, 0.03 μM, 0.01 μM, 0.003 μM, 0.001 μM, 0.0003 μM and 0 μM).
The kinase assays described herein were performed at Millipore UK Ltd, Dundee Technology Park, Dundee DD2 1SW, UK.

[4] = rat, liver microsomes, pH 7.4, Rat liver microsomes 0.5 mg protein/mL
[5] = rat, liver microsomes, pH 7.4, Rat liver microsomes
[6] = human, liver microsomes, pH 7.4, Human liver microsomes 0.5 mg protein/mL
[7] = human, liver microsomes, pH 7.4, Human liver microsomes
[8] = pH 7.4, Rat liver microsomes 0.5 mg protein/mL
[9] = pH 7.4, Human liver microsomes 0.5 mg protein/mL

JAK1 (h), sequence (P23458 whole entry): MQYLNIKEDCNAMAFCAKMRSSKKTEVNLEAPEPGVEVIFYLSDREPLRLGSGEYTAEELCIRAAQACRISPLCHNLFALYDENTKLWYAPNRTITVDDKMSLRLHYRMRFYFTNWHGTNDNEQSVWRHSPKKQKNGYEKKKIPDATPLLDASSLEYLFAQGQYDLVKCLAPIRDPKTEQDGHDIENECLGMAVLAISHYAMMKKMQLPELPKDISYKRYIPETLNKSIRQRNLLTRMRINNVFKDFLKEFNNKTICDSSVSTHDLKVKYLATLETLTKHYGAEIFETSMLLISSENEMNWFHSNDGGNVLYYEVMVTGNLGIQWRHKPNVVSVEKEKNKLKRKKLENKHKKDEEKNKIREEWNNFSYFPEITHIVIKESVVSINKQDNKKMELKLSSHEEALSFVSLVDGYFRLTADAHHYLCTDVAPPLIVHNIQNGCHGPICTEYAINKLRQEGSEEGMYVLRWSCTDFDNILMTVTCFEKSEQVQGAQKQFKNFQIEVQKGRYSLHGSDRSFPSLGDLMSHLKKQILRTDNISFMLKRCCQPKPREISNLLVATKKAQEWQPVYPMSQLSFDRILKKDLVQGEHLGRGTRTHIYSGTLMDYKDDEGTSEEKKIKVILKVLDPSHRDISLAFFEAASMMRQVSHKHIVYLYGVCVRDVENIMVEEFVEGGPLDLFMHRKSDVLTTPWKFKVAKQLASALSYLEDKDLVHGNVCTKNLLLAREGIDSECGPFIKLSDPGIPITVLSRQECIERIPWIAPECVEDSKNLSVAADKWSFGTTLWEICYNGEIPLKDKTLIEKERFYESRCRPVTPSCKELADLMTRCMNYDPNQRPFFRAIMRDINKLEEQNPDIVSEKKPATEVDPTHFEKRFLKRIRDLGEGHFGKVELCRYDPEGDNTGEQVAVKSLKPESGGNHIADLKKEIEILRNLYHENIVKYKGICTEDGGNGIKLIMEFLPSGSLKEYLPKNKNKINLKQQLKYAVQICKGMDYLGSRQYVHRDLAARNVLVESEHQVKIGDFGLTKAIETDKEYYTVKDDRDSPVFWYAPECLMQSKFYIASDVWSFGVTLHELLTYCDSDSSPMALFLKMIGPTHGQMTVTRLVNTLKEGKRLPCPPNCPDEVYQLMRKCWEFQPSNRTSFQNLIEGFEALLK

SMILES | Clearance (CL) after iv dosing [1] [mL/min/kg] | F [1] [%] | AUC(0-t) [1] [ng·h/mL] | half-life [1] [h] | Vd [1] [L/kg] | half-life at 5 μM [2, 4] [h] | CLint scaled at 5 μM [2, 5] [mL/min/kg] | half-life at 5 μM [3, 6] [h] | CLint scaled at 5 μM [3, 7] [mL/min/kg] | half-life at 5 μM [2, 8] [h] | CLint scaled at 5 μM ([2]; pH 7.4, Rat liver microsomes) [mL/min/kg] | half-life at 5 μM [3, 9] [h] | CLint scaled at 5 μM ([3]; pH 7.4, Human liver microsomes) [mL/min/kg] | IC50 (JAK1 (h)) [nM]
CN(c1nc(Nc2cnn(C)c2)ncc1Cl)C1CCC2(CCNC2)CC1 (single isomer, unassigned) [Ex. 3.10A, 5-chloro-N^4-methyl-N^2-(1-methyl-1H-pyrazol-4-yl)-N^4-(2-azaspiro[4.5]decan-8-yl)pyrimidine-2,4-diamine] | 70.2 | 19.06 | 216 | 2.72 | 13.5 | 0.213 | 194 | 5.24 | 5.53 | – | – | – | – | –
CN(c1ccnc(Nc2cnn(C)c2)n1)C1CNCC12CCCC2 (stereo not drawn) [Ex. 1, N^4-methyl-N^2-(1-methyl-1H-pyrazol-4-yl)-N^4-(2-azaspiro[4.4]nonan-4-yl) pyrimidine-2,4-diamine] | 157 | 44.39 | 103 | 3.77 | 40.3 | – | – | – | – | 4.49 | 9.23 | 3.05 | 9.49 | –
Cn1cc(Nc2nccc(NC3CCC4(CC3)CCN(C(=O)CC#N)C4)n2)cn1 (stereo not drawn) [Ex. 6, 3-(8-((2-((1-methyl-1H-pyrazol-4-yl)amino)pyrimidin-4-yl)amino)-2-azaspiro[4.5]decan-2-yl)-3-oxopropanenitrile] | – | – | – | – | – | – | – | – | – | – | – | – | – | 55
Cc1cnc(Nc2cnn(C)c2)nc1NC1CN(C(=O)CC#N)CC12CCCC2 (stereo not drawn) [Ex. 8, 3-(4-((5-methyl-2-((1-methyl-1H-pyrazol-4-yl)amino)pyrimidin-4-yl)amino)-2-azaspiro[4.4]nonan-2-yl)-3-oxopropanenitrile] | 61.7 | 17.5 | 272 | 0.88 | 2.85 | – | – | – | – | – | – | – | – | 11
Cc1cnc(Nc2cnn(C)c2)nc1N(C)C1CCC2(CC1)CCN(C(=O)CC#N)CC2 [Ex. 23, 3-(9-(methyl(5-methyl-2-((1-methyl-1H-pyrazol-4-yl)amino)pyrimidin-4-yl)amino)-3-azaspiro[5.5]undecan-3-yl)-3-oxopropanenitrile] | – | – | – | – | – | 0.075 | 552 | 2.09 | 13.9 | – | – | – | – | –
COc1cnc(Nc2cc(C3CC3)[nH]n2)nc1NC1CC2CN(C(=O)CC#N)CC2C1 (stereo not drawn) [Ex. 52, 3-(5-((2-((5-cyclopropyl-1H-pyrazol-3-yl)amino)-5-methoxypyrimidin-4-yl)amino)hexahydrocyclopenta[c]pyrrol-2(1H)-yl)-3-oxopropanenitrile] | 84.2 | 16.5 | 197 | 0.32 | 1.6 | – | – | – | – | 0.267 | 155 | 1.14 | 25.4 | –
CC(=O)N1CC2CC(Nc3nc(Nc4cc(C5CC5)[nH]n4)ncc3Cl)CC2C1 (stereo not drawn) [Ex. 53, 1-(5-((5-chloro-2-((5-cyclopropyl-1H-pyrazol-3-yl)amino)pyrimidin-4-yl)amino)hexahydrocyclopenta[c]pyrrol-2(1H)-yl)ethanone] | 55.2 | 33.0 | 296 | 1.02 | 2.46 | – | – | – | – | 0.385 | 108 | 4.44 | 6.53 | –
N#CCC(=O)N1CCC2(CCC(Nc3nc(Nc4cc(C5CC5)[nH]n4)ncc3Cl)CC2)CC1 [Ex. 54, 3-(9-((5-chloro-2-((5-cyclopropyl-1H-pyrazol-3-yl)amino)pyrimidin-4-yl)amino)-3-azaspiro[5.5]undecan-3-yl)-3-oxopropanenitrile] | – | – | – | – | – | 0.527 | 78.6 | 0.647 | 44.8 | – | – | – | – | –
Cc1nn(C)cc1Nc1ncc(Cl)c(NC2CCC3(CC2)CCN(C(=O)CC#N)CC3)n1 [Ex. 57, 3-(9-((5-chloro-2-((1,3-dimethyl-1H-pyrazol-4-yl)amino)pyrimidin-4-yl)amino)-3-azaspiro[5.5]undecan-3-yl)-3-oxopropanenitrile] | – | – | – | – | – | – | – | – | – | – | – | – | – | 16
CC(=O)N1CC2CC(Nc3nc(Nc4cnn(C)c4)ncc3C)CC2C1 (stereo not drawn) [Ex. 61, 1-(5-((5-methyl-2-((1-methyl-1H-pyrazol-4-yl)amino)pyrimidin-4-yl)amino)hexahydrocyclopenta[c]pyrrol-2(1H)-yl)ethanone] | – | – | – | – | – | – | – | – | – | – | – | – | – | 42
Cn1cc(Nc2ncc(C#N)c(NC3CC4CN(C(=O)CC#N)CC4C3)n2)cn1 (stereo not drawn) [Ex. 67, 4-((2-(2-cyanoacetyl)octahydrocyclopenta[c]pyrrol-5-yl)amino)-2-((1-methyl-1H-pyrazol-4-yl)amino)pyrimidine-5-carbonitrile] | – | – | – | – | – | – | – | – | – | 0.44 | 94.1 | 4.93 | 5.87 | –
